This assay concerns the target 5-hydroxytryptamine receptor 2C (Homo sapiens) (UniProt P28335). Kind of assay: Antagonist activity at human 5HT2C receptor expressed in CHO cells assessed as inhibition of 5-HT-stimulated [35S]GTPgamma binding.

Sequence of 5-hydroxytryptamine receptor 2C (Homo sapiens) (P28335 whole entry, looked up): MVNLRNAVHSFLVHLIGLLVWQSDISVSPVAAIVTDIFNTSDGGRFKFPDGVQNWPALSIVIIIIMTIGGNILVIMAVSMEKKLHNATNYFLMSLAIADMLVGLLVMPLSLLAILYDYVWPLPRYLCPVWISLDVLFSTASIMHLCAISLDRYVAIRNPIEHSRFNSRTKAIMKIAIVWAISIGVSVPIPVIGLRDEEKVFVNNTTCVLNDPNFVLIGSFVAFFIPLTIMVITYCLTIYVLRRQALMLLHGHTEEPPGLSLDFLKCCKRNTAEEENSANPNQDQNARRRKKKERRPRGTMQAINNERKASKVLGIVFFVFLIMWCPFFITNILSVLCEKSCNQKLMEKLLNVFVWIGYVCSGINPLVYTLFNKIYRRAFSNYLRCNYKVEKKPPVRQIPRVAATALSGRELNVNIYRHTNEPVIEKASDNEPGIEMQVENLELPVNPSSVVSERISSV

Consider `CC(C)N(c1cccc(N2CCN(C)CC2)c1)S(=O)(=O)c1ccc2ccccc2c1`, for which the inhibition entry was “Dose-dependent effect”.

The values above are taken from ChEMBL document CHEMBL1221248, “Synthesis and SAR of (piperazin-1-yl-phenyl)-arylsulfonamides: a novel series of atypical antipsychotic agents” (Bioorg Med Chem Lett, 2010).
